Source: patent US20190298796A1, “Therapeutic Compositions from the Brevinin-1 Family of Peptides and Uses Thereof” (priority 2016, published 2019)
≈ marks a conversion by molar mass, not a printed value. Residues, ends and D or L forms follow the SMILES beside them.

What was measured:
[1] = test system: Bacillus subtilis MTCC 14416; assay type: cell-based; details: lowest concentration killing entire bacteria, 24 hrs
Text: (§1) Antimicrobial activity: Broth dilution method [39] was used to assess the antimicrobial activity of the peptides. Bacterial strains used for in vitro antibacterial assay were Staphylococcus aureus (MTCC 9542), Bacillus subtilis (MTCC 14416), Bacillus coagulans (ATCC 7050), Methicillin-resistant Staphylococcus aureus (MRSA) (ATCC 43300), Streptococcus mutans (MTCC 497), Streptococcus gordonii (MTCC 2695), Vibrio cholerae (MCV09), Escherichia coli (ATCC 25922), Vancomycin-resistant enterococcus (VRE) (ATCC 29212) and gram-negative fish pathogens Aeromonas hydrophila (ATCC 7966) and Aeromonas sobria (ATCC 43979). Bacterial cultures were grown in Muller Hinton broth (MHB) (Hi-media) by overnight incubation at 37° C. with constant shaking. Microbial cultures having 10^6 CFU/ml were made from OD600: 0.6 cultures. 400 μM stock solutions of peptides were prepared in autoclaved double distilled water and diluted in MHB to make concentrations ranging from 0.7 to 100 μM. Bacterial inoculum without peptide was used as the negative control.

gram-negative bacteria = assay: MIC range over the tested gram-negative bacteria; assay type: cell-based
Text: as §1

human erythrocytes = assay type: cell-based; details: 60 min, at the peptide's MIC for Staphylococcus aureus MTCC 9542 (MIC in parenthesis)
Protocol: Hemolytic Activity: Hemolytic assay was carried out as previously described. Briefly, 10% (v/v) suspensions of fresh human erythrocytes in phosphate buffered saline (pH 7.2) were incubated with different concentrations (100 μM-0.7 μM) of B1/1 COOH & B1/2 COOH, B1/1 CONH2 & B1/2 CONH2 and cyclic B1/1 CONH2 & cyclic B1/2 CONH2 and incubated at 3^7° C. for 60 min. The cells were centrifuged (3000×g) for 5 min, and absorbance of the supernatant was measured at 595 nm. Hemolysis caused by 10% Triton X-100 was taken as positive control. Percentage hemolysis was calculated by measuring the mean amount of hemoglobin released as a result of lysis of erythrocyte from three independent experiments.

VRE ATCC 29212 = details: lowest concentration killing entire bacteria, 24 hrs
Text: as §1

[2] = test system: Bacillus coagulans ATCC 7050; assay type: cell-based; details: lowest concentration killing entire bacteria, 24 hrs
Text: as §1

[3] = test system: Staphylococcus aureus MTCC 9542; assay type: cell-based; details: lowest peptide concentration required to kill entire bacteria, 24 hrs, NA = not active up to the highest concentration tested
Text: as §1

MRSA ATCC 43300 = assay type: cell-based, Methicillin-resistant Staphylococcus aureus; details: lowest concentration killing entire bacteria, 24 hrs
Text: as §1

## CC[C@H](C)[C@H](NC(=O)CNC(=O)[C@@H]1CCCN1C(=O)[C@H](Cc1ccccc1)NC(=O)[C@@H](N)Cc1ccccc1)C(=O)N[C@H](C(=O)N[C@@H](CCCCN)C(=O)N[C@H](C(=O)N[C@@H](C)C(=O)NCC(=O)N[C@@H](C)C(=O)N[C@H](C(=O)N[C@@H](CC(C)C)C(=O)N1CCC[C@H]1C(=O)N[C@H](C(=O)N[C@@H](C)C(=O)N[C@H](C(=O)N[C@@H](CS)C(=O)N[C@@H](C)C(=O)N[C@H](C(=O)N[C@H](C(=O)N[C@@H](CCCCN)C(=O)N[C@@H](CCCNC(=N)N)C(=O)N[C@@H](CS)C(=O)O)[C@@H](C)O)[C@@H](C)CC)[C@@H](C)CC)[C@@H](C)O)[C@@H](C)CC)C(C)C)[C@@H](C)CC [B1/2 COOH] (H-FFPGIIKVAGAILPTAICAITKRC-OH; N-terminus assumed)
[1]
  MIC: 67.5 µM (≈ 169 µg/mL)
gram-negative bacteria
  Activity against gram-negative bacteria (MIC range): not with gram-negative bacteria
Human erythrocytes
  Percentage hemolysis at MIC: 25%
VRE ATCC 29212
  MIC: 50 µM (≈ 125 µg/mL)
[2]
  MIC: 25 µM (≈ 62.6 µg/mL)
[3]
  MIC: 12.5 µM (≈ 31.3 µg/mL)
MRSA ATCC 43300
  MIC: 30 µM (≈ 75.1 µg/mL)
